{"source": "patent US20230149418A1", "about": "“METHODS AND SYNERGIC COMPOSITIONS FOR TREATING VIRAL INFECTIONS” (HADASIT MEDICAL RESEARCH SERVICES AND DEVELOPMENT LTD., priority 2018, published 2023)", "key": {"HCMV TB40/E strain": {"system": "HCMV TB40/E strain", "assay": "Plaque reduction assay, HCMV TB40/E strain in human foreskin fibroblasts, single drugs and 2-drug combinations (Chou-Talalay)", "assay_type": "cell-based, human cytomegalovirus", "settings": "for Dose of drug alone at Fa 0.9: Fa 0.9, drug alone; for EC50: Human betaherpesvirus 5, Fibroblast", "description": "The CMV strain used was TB40/E. The CMV strain was propagated and tittered in human foreskin fibroblasts (HFF) cells. Cell-free virus stocks and cell-associated clinical isolates were maintained at -70° C. Viral stocks were tittered by serial 10-fold dilution in 24-well tissue culture plates containing HFF monolayers overlaid with agarose-medium. After incubation for 7 to 14 days, plaques were enumerated, and virus titer was determined as plaque forming units (PFU) per milliliter (ml). Stocks of artemisone (10 mM), ganciclovir (10 mM), BDCRB (120 mM), brincidofovir (1 mM), maribavir (10 mM) and letermovir (10 mM) were prepared in DMSO or H2O.\nCell monolayers were inoculated in 24-well culture plates with 0.2 ml of virus suspension containing 60 to 100 PFU per well. After adsorption for 60 -120 min at 37° C., the inoculum was removed, and culture medium was replaced with agarose-medium overlay containing serial concentrations of the tested drug(s). Plates were incubated for 7-14 days at 37° C. in a 5% CO2 incubator. Plaques were then counted microscopically.\nThe effect of a combination of artemisone with each one of ganciclovir (HCMV DNA polymerase), BDCRB (HCMV terminase inhibitor), brincidofovir (HCMV DNA polymerase inhibitor), maribavir (HCMV UL97 kinase inhibitor) and letermovir (HCMV terminase inhibitor) was evaluated by the classical plaque reduction assay. The in vitro activity of each of the above mentioned antiviral compounds alone or in combination with artemisone was evaluated by the classical plaque reduction assay, using HCMV TB40/E strain in human foreskin fibroblasts cells. The concentration of each antiviral compound that reduced the plaque formation by 50% (EC50) was determined as previously described in Wolf DG et al., J Clin Invest. 1995;95:257-63. The individual EC50 values in human foreskin fibroblasts were as follows: artemisone EC50 - 1 µM; ganciclovir EC50 - 1 µM; maribavir EC50 - 1 µM; BDCRB EC50 - 0.5 µM; letermovir EC50 - 5 nM; brincidofovir EC50 -1 nM.\nFor the 2-drug combination studies, the EC50 value of each drug was used to determine an equipotent ratio between the two compounds (EC50 of drug 1 / EC50 of drug 2). Serial 2-fold dilutions of a mixture comprising artemisone and another antiviral compound at initial concentrations equivalent to 4-fold the equipotent ratio were added to duplicate wells of cells infected with HCMV. Overall, 5 different concentrations of the drug combinations were used: 4xEC50, 2xEC50, 1xEC50,0.5xEC50,0.25xEC50. The cell monolayers were inoculated in 24-well culture plates with 0.2 ml of virus suspension containing 60 to 100 plaque-forming unit (PFU) per well; the Multiplicity of infection (MOI) was 0.001-0.002 PFU/cell).\nD1 and D2 are the doses of the two drugs, and Dx is a dose causing to x% effect (LD0.5 is EC50). Briefly, the software extrapolated a combination index (CI) representing the interaction between the two drugs at specified levels of virus inhibition (that is 50%, 75%, 90%, 95%) versus the percentages of the inhibition induced by each drug alone and in combination (equation 16 in Chou).\nA weighted average CI (CIwt) was then calculated for each combination as (CI50+ 2×CI75+3×CI90+4×CI95)/10, to access the drug combinatory effects.\nThe dose reduction index (DRI) was then calculated as described in Chou. In general, the DRI measures the fold of dose reduction of each drug in the combination at a given effect level compared with the doses of each drug alone. For each one of the below tables: Fa - fraction of virus affected; doses are provided in µm."}, "[1]": {"settings": "male rats, 50 mg/kg for 14 days; cited from earlier work"}, "human endothelial cells": {"system": "human endothelial cells", "settings": "compared with dihydroartemisinin; cited from earlier work"}}, "note": "Where “and” joins values, the source holds several entries; their conditions need not be identical. Identical values can stand only once. Like-named read-outs stand apart in the source and are kept apart here."}
{"smiles": "CC1CCC2[C@@H](C)[C@H](N3CCS(=O)(=O)CC3)OC3O[C@]4(C)CCC1C32OO4", "note": "(stereo in doubt) [artemisone]", "values": [{"measurement": "Dose of drug alone at Fa 0.75", "setting": "HCMV TB40/E strain; Fa 0.75, drug alone, listed as Art", "result": "2.189 µm and 2.23 µm and 3.071 µm"}, {"measurement": "Dose of drug alone at Fa 0.9", "setting": "HCMV TB40/E strain", "result": 7.66, "unit": "µm"}, {"measurement": "Dose of drug alone at Fa 0.9", "setting": "HCMV TB40/E strain; listed as Art", "result": "7.658 µm and 7.87 µm and 8.905 µm"}, {"measurement": "Dose of drug alone at Fa 0.95", "setting": "HCMV TB40/E strain; Fa 0.95, drug alone, listed as Art", "result": "17.9447 µm and 18.59 µm and 18.3723 µm"}, {"measurement": "Dose of drug alone at Fa 0.97", "setting": "HCMV TB40/E strain; Fa 0.97, drug alone, listed as Art", "result": "32.8918 µm and 34.26 µm and 30.7567 µm"}, {"measurement": "EC50", "setting": "HCMV TB40/E strain; Fa 0.5, drug alone, read-out: Dose of drug alone at Fa 0.5", "result": 626, "unit": "nM"}, {"measurement": "EC50", "setting": "HCMV TB40/E strain; drug alone, human foreskin fibroblasts, read-out: EC50 (concentration that reduced the plaque formation by 50%)", "result": 1000, "unit": "nM"}, {"measurement": "DRI (dose reduction index)", "setting": "HCMV TB40/E strain; combination artemisone + brincidofovir, Fa 0.05", "result": 0.16}, {"measurement": "DRI (dose reduction index)", "setting": "HCMV TB40/E strain; combination artemisone + brincidofovir, Fa 0.5", "result": 1.44}, {"measurement": "DRI (dose reduction index)", "setting": "HCMV TB40/E strain; combination artemisone + brincidofovir, Fa 0.75", "result": 3.24}, {"measurement": "DRI (dose reduction index)", "setting": "HCMV TB40/E strain; combination artemisone + brincidofovir, Fa 0.9", "result": "up to 7"}, {"measurement": "DRI (dose reduction index)", "setting": "HCMV TB40/E strain; combination artemisone + brincidofovir, Fa 0.9, listed as Art", "result": 7.28}, {"measurement": "DRI (dose reduction index)", "setting": "HCMV TB40/E strain; combination artemisone + brincidofovir, Fa 0.95", "result": 12.65}, {"measurement": "DRI (dose reduction index)", "setting": "HCMV TB40/E strain; combination artemisone + brincidofovir, Fa 0.97", "result": 18.74}, {"measurement": "DRI (dose reduction index)", "setting": "HCMV TB40/E strain; combination artemisone + cidofovir, Fa 0.05", "result": 0.3256}, {"measurement": "DRI (dose reduction index)", "setting": "HCMV TB40/E strain; combination artemisone + cidofovir, Fa 0.5", "result": 2.047}, {"measurement": "DRI (dose reduction index)", "setting": "HCMV TB40/E strain; combination artemisone + cidofovir, Fa 0.75", "result": 4.066}, {"measurement": "DRI (dose reduction index)", "setting": "HCMV TB40/E strain; combination artemisone + cidofovir, Fa 0.9", "result": 8.07}, {"measurement": "DRI (dose reduction index)", "setting": "HCMV TB40/E strain; combination artemisone + cidofovir, Fa 0.9, listed as Art", "result": 8.075}, {"measurement": "DRI (dose reduction index)", "setting": "HCMV TB40/E strain; combination artemisone + cidofovir, Fa 0.95", "result": 12.8761}, {"measurement": "DRI (dose reduction index)", "setting": "HCMV TB40/E strain; combination artemisone + cidofovir, Fa 0.97", "result": "up to 17.9"}, {"measurement": "DRI (dose reduction index)", "setting": "HCMV TB40/E strain; combination artemisone + cidofovir, Fa 0.97, listed as Art", "result": 17.9464}, {"measurement": "DRI (dose reduction index)", "setting": "HCMV TB40/E strain; combination artemisone + ganciclovir, Fa 0.05", "result": 0.2822}, {"measurement": "DRI (dose reduction index)", "setting": "HCMV TB40/E strain; combination artemisone + ganciclovir, Fa 0.5", "result": 1.792}, {"measurement": "DRI (dose reduction index)", "setting": "HCMV TB40/E strain; combination artemisone + ganciclovir, Fa 0.75", "result": 3.573}, {"measurement": "DRI (dose reduction index)", "setting": "HCMV TB40/E strain; combination artemisone + ganciclovir, Fa 0.9, listed as Art", "result": 7.123}, {"measurement": "DRI (dose reduction index)", "setting": "HCMV TB40/E strain; combination artemisone + ganciclovir, Fa 0.95", "result": 11.39}, {"measurement": "DRI (dose reduction index)", "setting": "HCMV TB40/E strain; combination artemisone + ganciclovir, Fa 0.95, listed as Art", "result": 11.3872}, {"measurement": "DRI (dose reduction index)", "setting": "HCMV TB40/E strain; combination artemisone + ganciclovir, Fa 0.97", "result": 15.9002}, {"measurement": "DRI (dose reduction index)", "setting": "HCMV TB40/E strain; combination artemisone + letermovir, Fa 0.05", "result": 0.2276}, {"measurement": "DRI (dose reduction index)", "setting": "HCMV TB40/E strain; combination artemisone + letermovir, Fa 0.5", "result": 1.624}, {"measurement": "DRI (dose reduction index)", "setting": "HCMV TB40/E strain; combination artemisone + letermovir, Fa 0.75", "result": 3.38}, {"measurement": "DRI (dose reduction index)", "setting": "HCMV TB40/E strain; combination artemisone + letermovir, Fa 0.9", "result": 7.04}, {"measurement": "DRI (dose reduction index)", "setting": "HCMV TB40/E strain; combination artemisone + letermovir, Fa 0.9, listed as Art", "result": 7.037}, {"measurement": "DRI (dose reduction index)", "setting": "HCMV TB40/E strain; combination artemisone + letermovir, Fa 0.95", "result": 11.5866}, {"measurement": "DRI (dose reduction index)", "setting": "HCMV TB40/E strain; combination artemisone + letermovir, Fa 0.97", "result": "up to 16"}, {"measurement": "DRI (dose reduction index)", "setting": "HCMV TB40/E strain; combination artemisone + letermovir, Fa 0.97, listed as Art", "result": 16.5217}, {"measurement": "DRI (dose reduction index)", "setting": "HCMV TB40/E strain; combination artemisone + maribavir, Fa 0.05", "result": 7.032}, {"measurement": "DRI (dose reduction index)", "setting": "HCMV TB40/E strain; combination artemisone + maribavir, Fa 0.5", "result": 15.7458}, {"measurement": "DRI (dose reduction index)", "setting": "HCMV TB40/E strain; combination artemisone + maribavir, Fa 0.75", "result": 21.2706}, {"measurement": "DRI (dose reduction index)", "setting": "HCMV TB40/E strain; combination artemisone + maribavir, Fa 0.9", "result": 28.7}, {"measurement": "DRI (dose reduction index)", "setting": "HCMV TB40/E strain; combination artemisone + maribavir, Fa 0.9, listed as Art", "result": 28.7339}, {"measurement": "DRI (dose reduction index)", "setting": "HCMV TB40/E strain; combination artemisone + maribavir, Fa 0.95", "result": 35.2558}, {"measurement": "DRI (dose reduction index)", "setting": "HCMV TB40/E strain; combination artemisone + maribavir, Fa 0.97", "result": 40.8}, {"measurement": "DRI (dose reduction index)", "setting": "HCMV TB40/E strain; combination artemisone + maribavir, Fa 0.97, listed as Art", "result": 40.7793}, {"measurement": "Tolerability", "setting": "[1]", "result": "no effect as compared to controls"}, {"measurement": "Anti-angiogenic activity", "setting": "human endothelial cells", "result": "significantly less anti-angiogenic than dihydroartemisinin"}]}
